The IC50 is the point on the concentration scale where inhibition reaches its midpoint.

Where two headings read alike, the source gives them in different places. A value given as a limit tells only on which side of the number the result lay.

The target in assay [1] is T1, AHR (Homo sapiens, UniProt P35869).
T1 construct: U87 MG glioblastoma cells (ATCC #HTB-14) endogenously expressing AHR; endogenous in cells; host or cells: U87 MG glioblastoma cells (ATCC #HTB-14)
T1 sequence (P35869 11-848): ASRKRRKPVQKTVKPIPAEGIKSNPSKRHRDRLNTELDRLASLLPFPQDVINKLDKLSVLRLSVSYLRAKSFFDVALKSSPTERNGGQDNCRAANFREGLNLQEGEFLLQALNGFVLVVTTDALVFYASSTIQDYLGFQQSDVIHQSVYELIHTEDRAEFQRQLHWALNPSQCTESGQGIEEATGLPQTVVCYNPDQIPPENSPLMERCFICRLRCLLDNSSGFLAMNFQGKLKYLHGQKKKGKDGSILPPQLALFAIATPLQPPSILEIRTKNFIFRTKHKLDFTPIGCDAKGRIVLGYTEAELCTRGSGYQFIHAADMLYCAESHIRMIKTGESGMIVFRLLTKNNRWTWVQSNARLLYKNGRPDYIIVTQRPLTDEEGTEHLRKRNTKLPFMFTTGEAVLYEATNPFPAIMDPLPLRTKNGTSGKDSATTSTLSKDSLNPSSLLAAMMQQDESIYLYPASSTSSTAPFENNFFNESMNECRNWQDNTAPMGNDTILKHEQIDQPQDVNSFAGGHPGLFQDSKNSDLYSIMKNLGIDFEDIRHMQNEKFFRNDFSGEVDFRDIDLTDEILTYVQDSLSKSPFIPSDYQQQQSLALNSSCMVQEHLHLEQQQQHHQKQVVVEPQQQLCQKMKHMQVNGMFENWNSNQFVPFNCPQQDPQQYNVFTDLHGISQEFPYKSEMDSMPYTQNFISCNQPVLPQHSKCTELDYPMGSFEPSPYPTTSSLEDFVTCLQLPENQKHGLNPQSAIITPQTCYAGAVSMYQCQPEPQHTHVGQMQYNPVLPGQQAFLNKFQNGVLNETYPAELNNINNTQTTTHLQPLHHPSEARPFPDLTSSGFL
Description: In vitro assay 1: antagonism in human cell line (AHR transactivation, firefly luciferase reporter, kynurenic acid prestimulated). In kind it is cell-based. The note with it: AHR Antagonism Human IC50 [M]. In a few lines:
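U87 MG + DRE-firefly/constitutive-Renilla stable reporters; kynurenic acid prestim; dual-luc read; Renilla = tox; normalized vs pos/neg controls (pos: 150 μM KYNA + 5 μM staurosporine).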
(In a reporter assay the amount or activity of a reporter protein is the signal.)

The target of assay [2] is T2, AHR (Mus musculus, UniProt P30561).
T2 sequence (P30561 1-848 P471L/N533S/M589L): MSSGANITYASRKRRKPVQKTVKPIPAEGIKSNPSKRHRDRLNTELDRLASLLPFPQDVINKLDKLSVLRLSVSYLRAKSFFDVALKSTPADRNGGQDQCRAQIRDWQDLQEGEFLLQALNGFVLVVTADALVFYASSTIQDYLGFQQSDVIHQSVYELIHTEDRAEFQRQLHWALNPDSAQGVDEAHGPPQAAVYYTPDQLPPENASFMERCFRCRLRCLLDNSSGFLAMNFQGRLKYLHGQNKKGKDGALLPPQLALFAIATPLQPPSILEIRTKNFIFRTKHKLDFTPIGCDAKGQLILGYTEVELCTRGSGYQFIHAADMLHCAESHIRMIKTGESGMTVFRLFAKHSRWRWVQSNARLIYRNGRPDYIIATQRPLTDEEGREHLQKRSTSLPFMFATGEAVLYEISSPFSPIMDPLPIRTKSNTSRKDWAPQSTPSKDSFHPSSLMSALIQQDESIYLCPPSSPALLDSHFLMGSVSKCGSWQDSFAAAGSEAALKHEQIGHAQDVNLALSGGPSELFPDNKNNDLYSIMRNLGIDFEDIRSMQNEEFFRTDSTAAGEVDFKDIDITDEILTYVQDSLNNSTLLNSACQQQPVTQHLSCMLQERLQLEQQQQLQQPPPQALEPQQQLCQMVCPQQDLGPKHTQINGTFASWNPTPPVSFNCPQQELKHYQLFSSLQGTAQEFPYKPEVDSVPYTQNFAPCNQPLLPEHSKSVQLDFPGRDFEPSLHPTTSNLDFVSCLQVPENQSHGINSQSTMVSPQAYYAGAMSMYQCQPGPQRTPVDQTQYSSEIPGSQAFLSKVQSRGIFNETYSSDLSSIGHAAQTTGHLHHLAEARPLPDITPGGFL
Description: In vitro assay 3: antagonism in mouse cell line (AHR transactivation, firefly luciferase reporter, kynurenic acid prestimulated). The note with it: 200 μM kynurenic acid, 20 hours, read-out: AHR Antagonism Mouse IC50. The class given is cell-based. An outline of the steps:
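Mouse cells stably carrying a DRE-driven AHR-inducible firefly luciferase reporter were prestimulated with the endogenous agonist kynurenic acid before compound addition. Luciferase read by SteadyGlo; cells without kynurenic acid served as full-inhibition control, with normalization to positive and negative controls. Repeat tests reported as mean or median.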

[3] abbreviates: Hepa 1c1c7 cells, firefly luciferase reporter.

Turning to `COc1ccc(-c2nc3c4cccc(Br)c4nc(N[C@@H](C(=O)NCCN4CCN(C)CC4)C(C)C)n3n2)cc1` [Example 924, N^2-[7-bromo-2-(4-methoxyphenyl)[1,2,4]triazolo[1,5-c]quinazolin-5-yl]-N-[2-(4-methylpiperazin-1-yl)ethyl]-D-valinamide], the IC50 on AHR [1] (firefly luciferase reporter) amounted to 6.71e-09 M; on AHR [2] (setting [3]) it was 3.8 nM.
Regarding `COc1cccc(-c2nc3c4ccccc4nc(N[C@@H]4CCCCNC4=O)n3n2)c1` [Example 75, (3R)-3-{[2-(3-methoxyphenyl)[1,2,4]triazolo[1,5-c]quinazolin-5-yl]amino}azepan-2-one], the IC50 against AHR [1] amounted to 2.57e-09 M; at AHR [2] (mouse Hepa 1c1c7 cells) it was 0.359 nM.
Consider `COc1cccc(-c2nc3c4ccccc4nc(N[C@@H](C(N)=O)C(C)C)n3n2)c1` [Example 103, N^2-[2-(3-methoxyphenyl)[1,2,4]triazolo[1,5-c]quinazolin-5-yl]-D-valinamide], for which the IC50 is 4.43e-09 M against AHR [1] and 0.345 nM on AHR [2] (mouse Hepa 1c1c7 cells).
As to `O=C1NCCCC[C@H]1Nc1nc2ccccc2c2nc(-c3cnccc3C(F)(F)F)nn12` [Example 490, (3R)-3-({2-[4-(trifluoromethyl)pyridin-3-yl][1,2,4]triazolo[1,5-c]quinazolin-5-yl}amino)azepan-2-one], the figures for the IC50 on AHR [1] and at AHR [2] (mouse Hepa 1c1c7 cells) were 4.25e-08 M and 50.6 nM, respectively.
For `COc1ccc(-c2nc3c4cccc(SC(C)C)c4nc(N[C@@H]4CCCCNC4=O)n3n2)cc1` [Example 767, (3R)-3-({2-(4-methoxyphenyl)-7-[(propan-2-yl)sulfanyl][1,2,4]triazolo[1,5-c]quinazolin-5-yl}amino)azepan-2-one] the same measures were 2.69e-08 M and 47.6 nM.
In the same order, the values of `COc1ccc(-c2nc3c4cccc(Br)c4nc(N[C@@H]4CCNC4=O)n3n2)cc1` [Example 218, (3R)-3-{[7-bromo-2-(4-methoxyphenyl)[1,2,4]triazolo[1,5-c]quinazolin-5-yl]amino}pyrrolidin-2-one] are 8.68e-09 M and 29.4 nM.
In the same order, the values of `COc1ccc(-c2nc3c4cc(C#N)ccc4nc(N[C@@H]4CCCCNC4=O)n3n2)cc1` [Example 401, 2-(4-Methoxyphenyl)-5-{[(3R)-2-oxoazepan-3-yl]amino}[1,2,4]triazolo[1,5-c]quinazoline-9-carbonitrile] are 4.44e-09 M and 8.7 nM.
As for `COc1cccc(-c2nc3c4cc(F)ccc4nc(NC4CCNC4=O)n3n2)c1` (single isomer, unassigned) [Example 186, 3-{[9-fluoro-2-(3-methoxyphenyl)[1,2,4]triazolo[1,5-c]quinazolin-5-yl]amino}pyrrolidin-2-one], the results for the IC50 against AHR [1] and at AHR [2] (mouse Hepa 1c1c7 cells) were 2.09e-08 M and 27.6 nM, respectively.
For `CCCCNC(=O)[C@@H](C)Nc1nc2c(Br)cccc2c2nc(-c3ccc(Cl)cc3OC(F)F)nn12` [Example 684, N^2-{7-bromo-2-[4-chloro-2-(difluoromethoxy)phenyl][1,2,4]triazolo[1,5-c]quinazolin-5-yl}-N-butyl-D-alaninamide] the same measures were 3.39e-09 M and 0.896 nM.
For `C[C@@H](Nc1nc2ccccc2c2nc(-c3cc(Cl)ccc3OC(F)(F)F)nn12)C(=O)NCCN(C)C` [Example 775, N^2-{2-[5-chloro-2-(trifluoromethoxy)phenyl][1,2,4]triazolo[1,5-c]quinazolin-5-yl}-N-[2-(dimethylamino)ethyl]-D-alaninamide] the same measures were 3.13e-06 M and 743 nM.
For `C[C@@H](Nc1nc2c(Br)cccc2c2nc(-c3cnn(C)c3)nn12)C(=O)NCC(C)(C)N` [Example 790, N-(2-amino-2-methylpropyl)-N^2-[7-bromo-2-(1-methyl-1H-pyrazol-4-yl)[1,2,4]triazolo[1,5-c]quinazolin-5-yl]-D-alaninamide], the figures for the IC50 on AHR [1] (firefly luciferase reporter) and on AHR [2] (setting [3]) were 4.14e-07 M and 402 nM, respectively.
Regarding `COc1ccc(-c2nc3c4cccc(Cl)c4nc(N[C@@H]4CNCCNC4=O)n3n2)cc1` [Example 421, (6R)-6-{[7-chloro-2-(4-methoxyphenyl)[1,2,4]triazolo[1,5-c]quinazolin-5-yl]amino)-1,4-diazepan-5-one], the concentration for half-maximal inhibition (IC50) against AHR [1] amounted to 7.09e-10 M; at AHR [2] (mouse Hepa 1c1c7 cells), 0.69 nM.
For `Cc1sccc1-c1nc2c3ccccc3nc(N[C@@H]3CCCNC3=O)n2n1` [Example 348, (3R)-3-{[2-(2-methylthiophen-3-yl)[1,2,4]triazolo[1,5-c]quinazolin-5-yl]amino}piperidin-2-one] the same measures were 7.76e-08 M and 37.4 nM.
For `Cn1cc(-c2nc3c4ccccc4nc(NC4CCNC4=O)n3n2)cn1` (single isomer, unassigned) [Example 18, 3-{[2-(1-methyl-1H-pyrazol-4-yl)[1,2,4]triazolo[1,5-c]quinazolin-5-yl]amino}pyrrolidin-2-one] the same measures were 1.11e-06 M and 2220 nM.
For `CCC[C@@H](Nc1nc2ccccc2c2nc(-c3cc(Cl)ccc3OC(F)(F)F)nn12)C(=O)NC` [Example 501, N^2-{2-[5-chloro-2-(trifluoromethoxy)phenyl][1,2,4]triazolo[1,5-c]quinazolin-5-yl}-N-methyl-D-norvalinamide] the same measures were more than 2e-05 M and 90.8 nM.
With `O=C1NCCCC[C@H]1Nc1nc2ccccc2c2nc(-c3ccc(O)cc3)nn12` [Example 614, (3R)-3-{[2-(4-hydroxyphenyl)[1,2,4]triazolo[1,5-c]quinazolin-5-yl]amino}azepan-2-one], the half-inhibitory concentration (IC50) against AHR [1] turned out to be 2.09e-08 M; on AHR [2] (mouse Hepa 1c1c7 cells) it was 23.8 nM.
For `CC[C@H](Nc1nc2c(Br)cccc2c2nc(-c3cnn(C)c3)nn12)C(N)=O` [Example 694, (2S)-2-{[7-bromo-2-(1-methyl-1H-pyrazol-4-yl)[1,2,4]triazolo[1,5-c]quinazolin-5-yl]amino}butanamide] the same measures were 1.55e-07 M and 719 nM.
For `O=C1NCCCC[C@H]1Nc1nc2c(Cl)cccc2c2nc(-c3ccc(F)cc3)nn12` [Example 554, (3R)-3-{[7-chloro-2-(4-fluorophenyl)[1,2,4]triazolo[1,5-c]quinazolin-5-yl]amino}azepan-2-one] the same measures were 7.68e-09 M and 2.45 nM.
`N#Cc1cccc(-c2nc3c4ccccc4nc(N[C@@H]4CCCNC4=O)n3n2)c1` [Example 384, 3-(5-{[(3R)-2-oxopiperidin-3-yl]amino}[1,2,4]triazolo[1,5-c]quinazolin-2-yl)benzonitrile]: the IC50 against AHR [1] was determined as 2.73e-07 M; on AHR [2] (mouse Hepa 1c1c7 cells), 72.2 nM.
In the same order, the values of `CC[C@H](Nc1nc2ccccc2c2nc(-c3ccc(OC)cc3C(F)(F)F)nn12)C(N)=O` [Example 514, (2S)-2-({2-[4-methoxy-2-(trifluoromethyl)phenyl][1,2,4]triazolo[1,5-c]quinazolin-5-yl}amino)butanamide] are more than 2e-05 M and 188 nM.

The values above are taken from US20230113037A1 (Bayer Aktiengesellschaft, priority 2019, published 2023).
